We go through six compounds from US12398132B2, “Derivatives of 4-(imidazo[1,2-a]pyridin-3-yl)-n-(pyridinyl)pyrimidin-2-amine as therapeutic agents” (AUCENTRA THERAPEUTICS PTY LTD, priority 2019, dated 2025).

Each structure is given as a SMILES string. Positions count from the first letter of the chain named. Where two headings read alike, the source gives them in different places.

The target of one experiment is CDK4/D1 (Homo sapiens, UniProt P11802). Briefly: ADP Glo kinase assay, CDK4/D1. The format is biochemical. Particulars: CDK4D1; for remaining activity at 10 µM: compound at 10 μM, read-out: residual enzymatic activity (%) at 10 μM; for remaining activity at 1 µM: compound at 1 μM (values marked *), read-out: residual enzymatic activity (%) at 1 μM*.
The target of another experiment is CDK6/D3 (Homo sapiens, UniProt Q00534). In words: ADP Glo kinase assay, CDK6/D3. The format is biochemical. The conditions noted are these: CDK6D3; for Ki: apparent Ki calculated from Km (ATP) and IC50, read-out: CDK inhibition Ki; for remaining activity at 10 µM: compound at 10 μM, read-out: residual enzymatic activity (%) at 10 μM; for remaining activity at 1 µM: compound at 1 μM (values marked *), read-out: residual enzymatic activity (%) at 1 μM*.

A further experiment concerns the target CDK9/CyclinT1 (Homo sapiens, UniProt P50750). Briefly: ADP Glo kinase assay, CDK9/CyclinT1. The format is biochemical. The conditions noted are these: CDK9T1; for Ki: apparent Ki calculated from Km (ATP) and IC50, read-out: CDK inhibition Ki; for remaining activity at 10 µM: compound at 10 μM, read-out: residual enzymatic activity (%) at 10 μM.
In another experiment the test system is MV-4-11. In words: Proliferation assay (resazurin/MTT), MV-4-11. The format is cell-based. Particulars: Homo sapiens, MV4-11, read-out: 72 h Growth inhibition GI50, MV-4-11 cells. For orientation: Resazurin is reduced to fluorescent resorufin, in cell work by metabolically active cells.
Another experiment concerns U937. Briefly: Proliferation assay (resazurin/MTT), U937. The format is cell-based. The conditions noted are these: Homo sapiens, U-937, read-out: 72 h Growth inhibition GI50, U937 cells.
In a further experiment the target is CDK2E1 (Homo sapiens, UniProt P24941).
Experiment [1] deals with T1, CDK1B (Homo sapiens, UniProt P06493). In words: biochemical.
For the next experiment, the target named is CDK7HMAT1 (Homo sapiens, UniProt P50613).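 Further: kinase activity measured with an ADP-Glo luminescent kinase assay.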
A further experiment has as its target T2, FLT3(WT) (Homo sapiens, UniProt P36888).
T2 sequence (P36888 27-993): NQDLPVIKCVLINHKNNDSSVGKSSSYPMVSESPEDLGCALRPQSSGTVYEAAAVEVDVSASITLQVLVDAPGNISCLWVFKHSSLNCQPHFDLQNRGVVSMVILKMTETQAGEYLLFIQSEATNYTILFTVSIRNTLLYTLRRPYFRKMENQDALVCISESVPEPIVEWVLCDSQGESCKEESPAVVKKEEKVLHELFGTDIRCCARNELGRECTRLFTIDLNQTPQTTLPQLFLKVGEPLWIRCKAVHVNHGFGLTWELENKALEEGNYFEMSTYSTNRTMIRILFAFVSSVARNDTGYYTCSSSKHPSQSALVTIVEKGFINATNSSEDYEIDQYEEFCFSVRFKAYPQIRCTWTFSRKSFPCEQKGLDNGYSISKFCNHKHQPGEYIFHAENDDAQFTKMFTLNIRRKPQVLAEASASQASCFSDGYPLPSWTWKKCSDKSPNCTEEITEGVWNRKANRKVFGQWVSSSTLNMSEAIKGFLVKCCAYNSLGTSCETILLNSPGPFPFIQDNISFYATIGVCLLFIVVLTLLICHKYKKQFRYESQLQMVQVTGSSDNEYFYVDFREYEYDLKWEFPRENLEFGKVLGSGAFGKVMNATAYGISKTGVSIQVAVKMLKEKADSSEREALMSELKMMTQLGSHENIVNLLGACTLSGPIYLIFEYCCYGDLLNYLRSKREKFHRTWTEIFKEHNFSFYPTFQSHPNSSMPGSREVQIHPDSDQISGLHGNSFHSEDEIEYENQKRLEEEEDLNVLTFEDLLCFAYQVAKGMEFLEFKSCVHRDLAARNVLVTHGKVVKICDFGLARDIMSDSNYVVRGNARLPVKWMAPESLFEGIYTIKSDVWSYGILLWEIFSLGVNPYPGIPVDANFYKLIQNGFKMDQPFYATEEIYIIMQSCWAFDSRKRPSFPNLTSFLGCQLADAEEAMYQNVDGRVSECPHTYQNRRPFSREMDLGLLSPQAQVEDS
In words: ADP Glo kinase assay, FLT3(WT). The format is biochemical. The conditions noted are these: for Ki: apparent Ki calculated from Km (ATP) and IC50, read-out: FLT3 inhibition Ki.

The target of the next experiment is T3, FLT3(ITD) (Homo sapiens, UniProt P36888).
T3 sequence (P36888 1-993): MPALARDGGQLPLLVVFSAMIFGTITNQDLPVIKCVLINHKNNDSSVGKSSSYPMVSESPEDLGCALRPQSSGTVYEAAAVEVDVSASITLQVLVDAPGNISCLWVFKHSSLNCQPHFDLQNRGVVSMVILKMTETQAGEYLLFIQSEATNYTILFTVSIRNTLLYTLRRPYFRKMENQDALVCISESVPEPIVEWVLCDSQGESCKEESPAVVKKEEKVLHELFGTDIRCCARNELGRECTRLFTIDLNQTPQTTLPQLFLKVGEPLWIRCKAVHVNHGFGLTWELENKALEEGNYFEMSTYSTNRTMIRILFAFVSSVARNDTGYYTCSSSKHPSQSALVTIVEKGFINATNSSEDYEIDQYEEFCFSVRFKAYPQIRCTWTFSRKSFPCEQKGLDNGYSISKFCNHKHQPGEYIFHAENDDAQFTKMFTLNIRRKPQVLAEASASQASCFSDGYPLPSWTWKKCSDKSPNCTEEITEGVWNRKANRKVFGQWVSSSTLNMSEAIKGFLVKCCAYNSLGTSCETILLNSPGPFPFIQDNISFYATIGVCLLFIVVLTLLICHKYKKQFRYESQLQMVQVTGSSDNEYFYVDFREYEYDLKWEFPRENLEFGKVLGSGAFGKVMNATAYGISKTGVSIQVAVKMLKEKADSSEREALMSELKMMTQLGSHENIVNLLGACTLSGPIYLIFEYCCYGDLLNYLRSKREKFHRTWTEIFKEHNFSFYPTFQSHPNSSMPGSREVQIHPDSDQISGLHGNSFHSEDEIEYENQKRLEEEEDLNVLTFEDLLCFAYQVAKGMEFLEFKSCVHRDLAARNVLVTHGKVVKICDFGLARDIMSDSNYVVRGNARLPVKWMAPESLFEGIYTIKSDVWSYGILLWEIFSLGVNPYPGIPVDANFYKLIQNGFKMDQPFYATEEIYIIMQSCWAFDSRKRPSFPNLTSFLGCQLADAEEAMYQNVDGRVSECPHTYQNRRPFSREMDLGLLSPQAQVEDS
In words: ADP Glo kinase assay, FLT3(ITD). The format is biochemical. The conditions noted are these: apparent Ki calculated from Km (ATP) and IC50, read-out: FLT3 inhibition Ki.

The target of another experiment is T4, FLT3(D835Y) (Homo sapiens, UniProt P36888, D835Y).
T4 sequence (P36888 27-993 D835Y): T2 sequence (P36888 27-993) with D809Y
In words: ADP Glo kinase assay, FLT3(D835Y). The format is biochemical. The conditions noted are these: apparent Ki calculated from Km (ATP) and IC50, read-out: FLT3 inhibition Ki.

In experiment [2] the target is T1, CDK1B.

Chain of CDK7HMAT1 (P50613 whole entry): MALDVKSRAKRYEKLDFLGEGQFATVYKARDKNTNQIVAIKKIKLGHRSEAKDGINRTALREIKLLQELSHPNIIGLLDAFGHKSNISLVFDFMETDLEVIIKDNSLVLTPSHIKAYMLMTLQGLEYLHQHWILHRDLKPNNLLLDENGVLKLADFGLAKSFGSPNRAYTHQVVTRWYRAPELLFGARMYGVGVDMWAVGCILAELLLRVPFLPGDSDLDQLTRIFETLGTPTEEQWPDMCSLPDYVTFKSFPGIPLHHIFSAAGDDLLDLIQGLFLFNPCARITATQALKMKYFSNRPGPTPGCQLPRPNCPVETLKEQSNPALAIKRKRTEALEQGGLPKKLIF
Chain of CDK7HMAT1 (P51946 whole entry partner): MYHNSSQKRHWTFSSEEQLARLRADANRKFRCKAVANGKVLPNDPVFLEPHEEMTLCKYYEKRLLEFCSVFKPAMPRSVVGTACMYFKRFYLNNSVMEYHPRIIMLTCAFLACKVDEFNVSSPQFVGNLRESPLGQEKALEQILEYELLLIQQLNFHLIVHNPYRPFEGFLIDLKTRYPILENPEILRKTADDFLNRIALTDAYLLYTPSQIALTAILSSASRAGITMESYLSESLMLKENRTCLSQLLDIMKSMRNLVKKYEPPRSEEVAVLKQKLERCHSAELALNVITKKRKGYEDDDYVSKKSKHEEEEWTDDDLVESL
Chain of CDK7HMAT1 (P51948 whole entry partner): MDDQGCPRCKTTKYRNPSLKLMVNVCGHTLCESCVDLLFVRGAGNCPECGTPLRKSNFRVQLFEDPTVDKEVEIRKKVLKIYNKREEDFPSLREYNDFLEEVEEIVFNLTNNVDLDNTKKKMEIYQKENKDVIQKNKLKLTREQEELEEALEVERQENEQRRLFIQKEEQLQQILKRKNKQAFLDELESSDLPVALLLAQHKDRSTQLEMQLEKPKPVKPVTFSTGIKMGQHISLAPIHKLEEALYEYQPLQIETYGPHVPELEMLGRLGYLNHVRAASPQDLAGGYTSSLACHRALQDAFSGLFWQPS
Chain of CDK9/CyclinT1 (P50750 whole entry, species assumed): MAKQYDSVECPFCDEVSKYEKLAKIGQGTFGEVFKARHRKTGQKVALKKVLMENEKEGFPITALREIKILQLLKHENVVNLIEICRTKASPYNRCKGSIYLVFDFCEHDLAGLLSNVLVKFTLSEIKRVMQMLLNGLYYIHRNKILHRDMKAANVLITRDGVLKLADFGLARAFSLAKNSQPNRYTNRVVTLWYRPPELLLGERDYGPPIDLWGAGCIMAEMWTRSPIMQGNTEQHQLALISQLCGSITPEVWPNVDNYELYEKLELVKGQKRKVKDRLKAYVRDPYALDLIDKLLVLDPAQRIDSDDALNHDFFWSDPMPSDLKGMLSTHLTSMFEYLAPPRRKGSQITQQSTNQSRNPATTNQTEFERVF
Chain of CDK9/CyclinT1 (O60563 whole entry partner, species assumed): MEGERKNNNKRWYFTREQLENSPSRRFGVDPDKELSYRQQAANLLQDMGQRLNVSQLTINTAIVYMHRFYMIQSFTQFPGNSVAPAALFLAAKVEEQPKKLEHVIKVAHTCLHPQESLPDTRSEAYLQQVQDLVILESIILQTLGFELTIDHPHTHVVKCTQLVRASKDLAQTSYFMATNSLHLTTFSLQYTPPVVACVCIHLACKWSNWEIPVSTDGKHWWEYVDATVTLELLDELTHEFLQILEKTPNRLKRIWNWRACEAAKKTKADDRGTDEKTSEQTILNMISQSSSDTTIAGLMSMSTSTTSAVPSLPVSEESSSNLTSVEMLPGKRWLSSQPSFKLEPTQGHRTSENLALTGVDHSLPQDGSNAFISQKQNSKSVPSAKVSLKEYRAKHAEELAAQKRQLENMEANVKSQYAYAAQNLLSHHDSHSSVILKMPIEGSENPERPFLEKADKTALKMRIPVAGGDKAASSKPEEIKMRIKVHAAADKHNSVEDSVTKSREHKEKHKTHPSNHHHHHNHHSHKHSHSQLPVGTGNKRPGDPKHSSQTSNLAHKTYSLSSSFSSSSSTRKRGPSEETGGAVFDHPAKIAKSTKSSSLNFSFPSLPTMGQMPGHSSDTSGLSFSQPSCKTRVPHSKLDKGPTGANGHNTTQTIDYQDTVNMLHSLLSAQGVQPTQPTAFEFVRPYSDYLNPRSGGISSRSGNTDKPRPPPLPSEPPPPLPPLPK
Chain of CDK6/D3 (Q00534 whole entry, species assumed): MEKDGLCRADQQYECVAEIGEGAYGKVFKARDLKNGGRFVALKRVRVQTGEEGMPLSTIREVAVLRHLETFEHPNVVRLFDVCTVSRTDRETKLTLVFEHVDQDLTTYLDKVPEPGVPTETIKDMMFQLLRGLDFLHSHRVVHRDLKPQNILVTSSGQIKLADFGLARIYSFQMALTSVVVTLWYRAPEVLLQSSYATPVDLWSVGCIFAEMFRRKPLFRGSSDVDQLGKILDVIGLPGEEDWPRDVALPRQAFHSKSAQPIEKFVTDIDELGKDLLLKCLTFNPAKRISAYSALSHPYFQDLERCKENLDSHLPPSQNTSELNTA
Chain of CDK6/D3 (P30281 whole entry partner, species assumed): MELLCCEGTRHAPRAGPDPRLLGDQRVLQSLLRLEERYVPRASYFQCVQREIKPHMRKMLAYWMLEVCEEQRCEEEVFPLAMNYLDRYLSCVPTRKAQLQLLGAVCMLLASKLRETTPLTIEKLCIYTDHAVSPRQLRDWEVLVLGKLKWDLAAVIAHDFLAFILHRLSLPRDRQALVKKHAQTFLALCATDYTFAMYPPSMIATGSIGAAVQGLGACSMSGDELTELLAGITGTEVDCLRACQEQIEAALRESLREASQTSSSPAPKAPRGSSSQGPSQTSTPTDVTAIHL
Chain of CDK4/D1 (P11802 whole entry, species assumed): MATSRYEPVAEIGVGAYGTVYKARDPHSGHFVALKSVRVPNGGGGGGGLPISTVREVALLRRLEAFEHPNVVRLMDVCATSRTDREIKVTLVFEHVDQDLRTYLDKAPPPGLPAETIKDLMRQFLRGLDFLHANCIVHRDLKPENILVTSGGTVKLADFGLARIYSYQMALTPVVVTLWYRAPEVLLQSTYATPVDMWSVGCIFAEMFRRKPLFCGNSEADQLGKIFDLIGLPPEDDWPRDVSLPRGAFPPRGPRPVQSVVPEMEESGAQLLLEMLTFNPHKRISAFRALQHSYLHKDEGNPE
Chain of CDK4/D1 (P24385 whole entry partner, species assumed): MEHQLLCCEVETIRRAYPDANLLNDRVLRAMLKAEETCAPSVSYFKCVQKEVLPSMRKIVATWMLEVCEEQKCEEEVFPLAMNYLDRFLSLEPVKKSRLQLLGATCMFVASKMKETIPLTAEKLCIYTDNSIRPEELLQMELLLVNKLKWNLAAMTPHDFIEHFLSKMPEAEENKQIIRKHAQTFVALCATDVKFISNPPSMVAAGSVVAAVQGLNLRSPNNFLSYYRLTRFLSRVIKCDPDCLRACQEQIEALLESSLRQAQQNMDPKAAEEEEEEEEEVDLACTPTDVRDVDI
T1 sequence (P06493 whole entry): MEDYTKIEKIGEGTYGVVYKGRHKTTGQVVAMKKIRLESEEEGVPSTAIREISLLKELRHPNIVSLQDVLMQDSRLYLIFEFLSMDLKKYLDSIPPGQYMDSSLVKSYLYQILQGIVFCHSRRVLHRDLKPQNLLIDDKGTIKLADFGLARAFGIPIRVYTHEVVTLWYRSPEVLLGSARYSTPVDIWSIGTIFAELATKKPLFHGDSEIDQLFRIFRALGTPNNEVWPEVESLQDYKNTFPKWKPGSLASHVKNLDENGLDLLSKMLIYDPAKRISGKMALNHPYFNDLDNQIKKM
T1 sequence (P14635 whole entry partner): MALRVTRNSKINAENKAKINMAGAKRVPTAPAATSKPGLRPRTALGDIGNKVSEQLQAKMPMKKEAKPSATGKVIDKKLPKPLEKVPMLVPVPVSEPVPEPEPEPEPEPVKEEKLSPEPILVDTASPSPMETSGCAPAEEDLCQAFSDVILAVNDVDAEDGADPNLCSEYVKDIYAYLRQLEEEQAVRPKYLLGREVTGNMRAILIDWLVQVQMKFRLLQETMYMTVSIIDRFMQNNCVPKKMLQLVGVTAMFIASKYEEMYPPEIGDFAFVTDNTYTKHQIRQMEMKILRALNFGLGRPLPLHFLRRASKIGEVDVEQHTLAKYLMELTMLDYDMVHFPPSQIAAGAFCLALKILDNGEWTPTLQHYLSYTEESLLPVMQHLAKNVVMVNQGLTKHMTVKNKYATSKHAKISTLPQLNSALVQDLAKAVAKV
Description for CDK7HMAT1: (§1) Inhibition of FLT3(WT), FLT3(ITD) and FLT3(D835Y) and CDKs were determined using ADP Glo Kinase assays (Promega Corporation, Madison, WI, USA). […] The kinase reactions are run for an optimised time period (FLT3-WT: 120 min, FLT3-ITD: 80 min, FLT3-D835Y: 100 min) at room temperature and then the reaction was stopped by adding 5 μL of ADP Glo reagent. […] Positive and negative controls were performed in 0.5% DMSO in the presence and absence of each FLT3 kinase, respectively. […] Half-maximal inhibition (IC50) values were calculated using a 4-parameter logistic non-linear regression model with Graphpad prism (Version 6.0). Apparent inhibition constants (Ki) values were calculated from Km (ATP) and IC50 values for the respective kinases.
Description for FLT3(D835Y): as §1
Description for FLT3(WT): as §1

The term GI50 denotes the concentration at which growth is held to half of that of the control. In the case of `CC(=O)N1CCN(c2ccc(Nc3nccc(-c4cnc5ccccn45)n3)nc2)CC1` [Cmpd 3, 1-(4-(6-((4-(Imidazo[1,2-a]pyridin-3-yl)pyrimidin-2-yl)amino)pyridin-3-yl)piperazin-1-yl)ethan-1-one], the Ki on CDK4/D1 (apparent Ki calculated from Km (ATP) and IC50, read-out: CDK inhibition Ki) was 1970 nM; at CDK6/D3, over 10000 nM; at CDK9/CyclinT1, 519 nM; at CDK1B [1] it was 3460 nM. The GI50 was 20 nM in the experiment with MV-4-11 and 2850 nM in the experiment on U937. The compound further showed an activity at CDK2E1 (10 µM) of 49%.
`c1ccn2c(-c3ccnc(Nc4ccc(N5CCOCC5)cn4)n3)cnc2c1` [Cmpd 4, 4-(Imidazo[1,2-a]pyridin-3-yl)-N-(5-morpholinopyridin-2-yl)pyrimidin-2-amine]: the remaining activity at 10 µM on CDK4/D1 turned out to be 38%; on CDK9/CyclinT1 it was 28%. Besides, the Ki is 2900 nM at CDK6/D3 and 1480 nM at CDK1B [1]. For the same compound, the GI50 in the experiment on MV-4-11 came to 38 nM; in the experiment on U937, 3360 nM. Moreover, the activity on CDK2E1 (1 µM) was 72%; on CDK7HMAT1 (10 µM), 74%.
`CC(=O)N1CCN(c2ccc(Nc3nccc(-c4cnc5ccc(Br)cn45)n3)nc2)CC1` [Cmpd 10, 1-(4-(6-((4-(6-Bromoimidazo[1,2-a]pyridin-3-yl)pyrimidin-2-yl)amino)pyridin-3-yl)piperazin-1-yl)ethan-1-one]: the remaining activity at 10 µM at CDK4/D1 was 34%; at CDK6/D3, 36%; on CDK9/CyclinT1, 23%. Also, the figures for the Ki at FLT3(WT), on FLT3(ITD) and at FLT3(D835Y) were 83 nM, 6 nM and 10 nM, respectively. Besides, the GI50 with MV-4-11 was determined as 2 nM; in the experiment with U937, 3130 nM. Further, the figures for the activity on CDK1B [2] (10 µM), at CDK2E1 (1 µM) and on CDK7HMAT1 (10 µM) were 41%, 58% and 55%, respectively.
As to `CC(=O)N1CCN(c2ccc(Nc3nccc(-c4cnc5ccc(-c6cnc(N7CCN(C)CC7)nc6)cn45)n3)nc2)CC1` [Cmpd 20, 1-(4-(6-((4-(6-(2-(4-Methylpiperazin-1-yl)pyrimidin-5-yl)imidazo[1,2-a]pyridin-3-yl)pyrimidin-2-yl)amino)pyridin-3-yl)piperazin-1-yl)ethan-1-one], the values for the remaining activity at 10 µM on CDK4/D1, at CDK6/D3 and on CDK9/CyclinT1 were 70%, 77% and 38%, respectively. On FLT3(WT) (compound at 1 μM, read-out: residual enzymatic activity (%) at 1 μM), the remaining activity at 1 µM amounted to 36%. The values for the Ki on FLT3(ITD) and at FLT3(D835Y) were 127 nM and 58 nM, respectively. For the same compound, the GI50 was 60 nM in the experiment on MV-4-11 and 4040 nM in the experiment on U937. Moreover, the activity on CDK1B [2] (10 µM) was determined as 100%; at CDK2E1 (1 µM) it was 83%; at CDK7HMAT1 (10 µM) it was 66%.
Take `CC(=O)N1CCN(c2ccc(Nc3nccc(-c4cnc5ccc(I)cn45)n3)nc2)CC1` [Cmpd 43, 1-(4-(6-((4-(6-Iodoimidazo[1,2-a]pyridin-3-yl)pyrimidin-2-yl)amino)pyridin-3-yl)piperazin-1-yl)ethan-1-one]: the remaining activity at 1 µM on CDK4/D1 and on CDK6/D3 was 70% each time. Also, the Ki on CDK9/CyclinT1 was 475 nM; on FLT3(WT), 38 nM; on FLT3(ITD) it was 44 nM; on FLT3(D835Y), 18 nM. In addition, the GI50 with MV-4-11 turned out to be 6 nM; in the experiment with U937, 3570 nM. The results for the activity on CDK1B [2] (1 µM), at CDK2E1 (1 µM) and at CDK7HMAT1 (1 µM) were 92%, 75% and 75%, respectively.
As to `CS(=O)(=O)N1CCN(c2ccc(Nc3nccc(-c4cnc5ccc(Br)cn45)n3)nc2)CC1` [Cmpd 50, 4-(6-Bromoimidazo[1,2-a]pyridin-3-yl)-N-(5-(4-(methylsulfonyl)piperazin-1-yl)pyridin-2-yl)pyrimidin-2-amine], the remaining activity at 1 µM was determined as 40% at CDK4/D1; 63% on CDK6/D3; 48% on CDK9/CyclinT1 (compound at 1 μM (values marked *), read-out: residual enzymatic activity (%) at 1 μM*). Also, the Ki is 35 nM on FLT3(WT), 180 nM on FLT3(ITD) and 15 nM at FLT3(D835Y). The GI50 is 7 nM in the experiment with MV-4-11 and 127 nM in the experiment on U937. The figures for the activity at CDK1B [2] (1 µM), on CDK2E1 (1 µM) and on CDK7HMAT1 (1 µM) were 62%, 74% and 57%, respectively.
